Columns and labels:
[1] = molecular target: GDP-bound NRAS wild-type protein (Homo sapiens, UniProt P01111); assay: Binding to NRAS by surface plasmon resonance (SPR), Single Cycle Kinetics; details: KD ratio NRAS/KRAS, SPR
[2] = molecular target: GDP-bound HRAS wild-type protein (Homo sapiens, UniProt P01112); assay: Binding to HRAS by surface plasmon resonance (SPR), Single Cycle Kinetics; details: KD ratio HRAS/KRAS, SPR
Chain of GDP-bound HRAS wild-type protein (P01112 whole entry): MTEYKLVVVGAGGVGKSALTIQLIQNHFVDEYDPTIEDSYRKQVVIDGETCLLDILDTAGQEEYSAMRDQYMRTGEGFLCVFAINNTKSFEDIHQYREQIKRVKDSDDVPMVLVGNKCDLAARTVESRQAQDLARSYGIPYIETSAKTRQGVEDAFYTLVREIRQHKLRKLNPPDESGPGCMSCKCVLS

Chain of GDP-bound NRAS wild-type protein (P01111 whole entry): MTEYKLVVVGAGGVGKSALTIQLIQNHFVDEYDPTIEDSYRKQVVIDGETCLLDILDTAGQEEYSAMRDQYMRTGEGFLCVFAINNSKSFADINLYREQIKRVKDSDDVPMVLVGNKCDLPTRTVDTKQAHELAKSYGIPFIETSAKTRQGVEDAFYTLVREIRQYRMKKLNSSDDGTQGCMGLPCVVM

| Structure (SMILES) | NRAS/KRAS (ratio of KD value with respect to GDP-bound NRAS wild-type protein to KD value with respect to KRAS) [1] | HRAS/KRAS (ratio of KD value with respect to GDP-bound HRAS wild-type protein to KD value with respect to KRAS) [2] |
| --- | --- | --- |
| CC[C@H](C)[C@@H]1NC(=O)[C@H](CC(C)C)N(C)C(=O)C[C@@H](C(=O)N2CCOCC2)N(C)C(=O)[C@H](C2CCCC2)N(C)C(=O)C2(CCCC2)NC(=O)[C@@H]2CCCN2C(=O)[C@H](CCc2cc(F)c(C(F)(F)F)c(F)c2)NC(=O)CN(C)C(=O)[C@H](Cc2ccc(C(F)(F)F)cc2)N2CCCC[C@@H](C2=O)N(C)C(=O)[C@@H]2CCCN2C1=O [PP0547] | B (a compound having 3 or more and less than 10 is denoted as B) | B (a compound having 3 or more and less than 10 is denoted as B) |
| CC[C@H](C)[C@@H]1NC(=O)[C@H](CC(C)C)N(C)C(=O)C[C@@H](C(=O)N2CCOCC2)N(C)C(=O)[C@H](C2CCCC2)N(C)C(=O)C2(CCCC2)NC(=O)[C@@H]2CCCN2C(=O)[C@H](CCc2cc(F)c(C(F)(F)F)c(F)c2)NC(=O)CN(C)C(=O)[C@H](Cc2ccc(C(F)(F)F)cc2)N2CCCC[C@@H](C2=O)N(C)C(=O)[C@@H]2CCCCN2C1=O [PP0548] | C (A compound having a KD ratio of 0.1 or more and less than 3 is denoted as C) | B (a compound having 3 or more and less than 10 is denoted as B) |
| CC[C@H](C)[C@@H]1NC(=O)[C@H](C)N(C)C(=O)C[C@@H](C(=O)N2CCOCC2)N(C)C(=O)[C@H](C2CCCC2)N(C)C(=O)C2(CCCC2)NC(=O)[C@@H]2CCCN2C(=O)[C@H](CCc2cc(F)c(C(F)(F)F)c(F)c2)NC(=O)CN(C)C(=O)[C@H](Cc2ccc(C(F)(F)F)cc2)N2CCCC[C@@H](C2=O)N(C)C(=O)CN(C)C1=O [PP0549] | C (A compound having a KD ratio of 0.1 or more and less than 3 is denoted as C) | B (a compound having 3 or more and less than 10 is denoted as B) |
| CC[C@H](C)[C@@H]1NC(=O)[C@H](CC)N(C)C(=O)C[C@@H](C(=O)N2CCOCC2)N(C)C(=O)[C@H](C2CCCC2)N(C)C(=O)C2(CCCC2)NC(=O)[C@@H]2CCCN2C(=O)[C@H](CCc2cc(F)c(C(F)(F)F)c(F)c2)NC(=O)CN(C)C(=O)[C@H](Cc2ccc(C(F)(F)F)cc2)N2CCCC[C@@H](C2=O)N(C)C(=O)CN(C)C1=O [PP0550] | B (a compound having 3 or more and less than 10 is denoted as B) | B (a compound having 3 or more and less than 10 is denoted as B) |
| CC[C@H](C)[C@@H]1NC(=O)[C@H](CC(C)C)N(C)C(=O)C[C@@H](C(=O)N2CCOCC2)N(C)C(=O)[C@H](C2CCCC2)N(C)C(=O)C2(CCCC2)NC(=O)[C@@H]2CCCN2C(=O)[C@H](CCc2cc(F)c(C(F)(F)F)c(F)c2)NC(=O)CN(C)C(=O)[C@H](Cc2ccc(C(F)(F)F)cc2)N2CCCC[C@@H](C2=O)N(C)C(=O)[C@H](CC)N(C)C1=O [PP0551] | C (A compound having a KD ratio of 0.1 or more and less than 3 is denoted as C) | B (a compound having 3 or more and less than 10 is denoted as B) |
| CC[C@H](C)[C@@H]1NC(=O)[C@H](CC(C)C)N(C)C(=O)C[C@@H](C(=O)N2CCOCC2)N(C)C(=O)[C@H](C2CCCC2)N(C)C(=O)C2(CCCC2)NC(=O)[C@@H]2CCCN2C(=O)[C@H](CCc2cc(F)c(C(F)(F)F)c(F)c2)NC(=O)CN(C)C(=O)[C@H](Cc2ccc(C(F)(F)F)cc2)N2CCCC[C@@H](C2=O)N(C)C(=O)CN(C)C1=O [PP0552] | B (a compound having 3 or more and less than 10 is denoted as B) | B (a compound having 3 or more and less than 10 is denoted as B) |
| CCO[C@@H]1C[C@H]2C(=O)NC3(CCCC3)C(=O)N(C)[C@@H](C3CCCC3)C(=O)N(C)[C@H](C(=O)N3CCOCC3)CC(=O)N(C)[C@@H](CC(C)C)C(=O)N[C@@H]([C@@H](C)CC)C(=O)N(C)CC(=O)N(C)[C@H]3CCCCN(C3=O)[C@@H](Cc3ccc(C(F)(F)F)cc3)C(=O)N(C)CC(=O)N[C@@H](CCc3cc(F)c(C(F)(F)F)c(F)c3)C(=O)N2C1 [PP0554] | B (a compound having 3 or more and less than 10 is denoted as B) | B (a compound having 3 or more and less than 10 is denoted as B) |
| CC[C@H](C)[C@@H]1NC(=O)[C@H](CC(C)C)N(C)C(=O)C[C@@H](C(=O)N2CCOCC2)N(C)C(=O)[C@H](C2CCCC2)N(C)C(=O)C2(CCCC2)NC(=O)[C@@H]2CC(=O)CN2C(=O)[C@H](CCc2cc(F)c(C(F)(F)F)c(F)c2)NC(=O)CN(C)C(=O)[C@H](Cc2ccc(C(F)(F)F)cc2)N2CCCC[C@@H](C2=O)N(C)C(=O)CN(C)C1=O [PP0555] | B (a compound having 3 or more and less than 10 is denoted as B) | B (a compound having 3 or more and less than 10 is denoted as B) |
| CC[C@H](C)[C@@H]1NC(=O)[C@H](CC(C)C)N(C)C(=O)C[C@@H](C(=O)N2CCOCC2)N(C)C(=O)[C@H](C2CCCC2)N(C)C(=O)C2(CCCC2)NC(=O)[C@@H]2C[C@H](O)CN2C(=O)[C@H](CCc2cc(F)c(C(F)(F)F)c(F)c2)NC(=O)CN(C)C(=O)[C@H](Cc2ccc(C(F)(F)F)cc2)N2CCCC[C@@H](C2=O)N(C)C(=O)CN(C)C1=O [PP0556] | C (A compound having a KD ratio of 0.1 or more and less than 3 is denoted as C) | B (a compound having 3 or more and less than 10 is denoted as B) |
| CC[C@H](C)[C@@H]1NC(=O)[C@H](CC(C)C)N(C)C(=O)C[C@@H](C(=O)N2CCOCC2)N(C)C(=O)[C@H](C2CCCC2)N(C)C(=O)C2(CCCC2)NC(=O)[C@@H]2C[C@H](OC)CN2C(=O)[C@H](CCc2cc(F)c(C(F)(F)F)c(F)c2)NC(=O)CN(C)C(=O)[C@H](Cc2ccc(C(F)(F)F)cc2)N2CCCC[C@@H](C2=O)N(C)C(=O)CN(C)C1=O [PP0557] | B (a compound having 3 or more and less than 10 is denoted as B) | B (a compound having 3 or more and less than 10 is denoted as B) |
| CC[C@H](C)[C@@H]1NC(=O)[C@H](CC(C)C)N(C)C(=O)C[C@@H](C(=O)N2CCOCC2)N(C)C(=O)[C@H](C2CCCC2)N(C)C(=O)C2(CCCC2)NC(=O)[C@@H]2[C@@H](O)CCN2C(=O)[C@H](CCc2cc(F)c(C(F)(F)F)c(F)c2)NC(=O)CN(C)C(=O)[C@H](Cc2ccc(C(F)(F)F)cc2)N2CCCC[C@@H](C2=O)N(C)C(=O)CN(C)C1=O [PP0558] | B (a compound having 3 or more and less than 10 is denoted as B) | B (a compound having 3 or more and less than 10 is denoted as B) |
| CC[C@H](C)[C@@H]1NC(=O)[C@H](CC(C)C)N(C)C(=O)C[C@@H](C(=O)N2CCOCC2)N(C)C(=O)[C@H](C2CCCC2)N(C)C(=O)C2(CC2)NC(=O)[C@@H]2CCCN2C(=O)[C@H](CCc2cc(F)c(C(F)(F)F)c(F)c2)NC(=O)CN(C)C(=O)[C@H](Cc2ccc(C(F)(F)F)cc2)N2CCCC[C@@H](C2=O)N(C)C(=O)CN(C)C1=O [PP0559] | B (a compound having 3 or more and less than 10 is denoted as B) | B (a compound having 3 or more and less than 10 is denoted as B) |
| CC[C@H](C)[C@@H]1NC(=O)[C@H](CC(C)C)N(C)C(=O)C[C@@H](C(=O)N2CCOCC2)N(C)C(=O)[C@H](C2CCCC2)N(C)C(=O)C2(CCC2)NC(=O)[C@@H]2CCCN2C(=O)[C@H](CCc2cc(F)c(C(F)(F)F)c(F)c2)NC(=O)CN(C)C(=O)[C@H](Cc2ccc(C(F)(F)F)cc2)N2CCCC[C@@H](C2=O)N(C)C(=O)CN(C)C1=O [PP0560] | B (a compound having 3 or more and less than 10 is denoted as B) | B (a compound having 3 or more and less than 10 is denoted as B) |
| CC[C@H](C)[C@@H]1NC(=O)[C@H](CC(C)C)N(C)C(=O)C[C@@H](C(=O)N2CCOCC2)N(C)C(=O)[C@H](C2CCCC2)N(C)C(=O)C2(CCCCC2)NC(=O)[C@@H]2CCCN2C(=O)[C@H](CCc2cc(F)c(C(F)(F)F)c(F)c2)NC(=O)CN(C)C(=O)[C@H](Cc2ccc(C(F)(F)F)cc2)N2CCCC[C@@H](C2=O)N(C)C(=O)CN(C)C1=O [PP0561] | B (a compound having 3 or more and less than 10 is denoted as B) | B (a compound having 3 or more and less than 10 is denoted as B) |
| CC[C@H](C)[C@@H]1NC(=O)[C@H](CC(C)C)N(C)C(=O)C[C@@H](C(=O)N2CCOCC2)N(C)C(=O)[C@H](C2CCCC2)N(C)C(=O)C2(CC(F)(F)C2)NC(=O)[C@@H]2CCCN2C(=O)[C@H](CCc2cc(F)c(C(F)(F)F)c(F)c2)NC(=O)CN(C)C(=O)[C@H](Cc2ccc(C(F)(F)F)cc2)N2CCCC[C@@H](C2=O)N(C)C(=O)CN(C)C1=O [PP0562] | B (a compound having 3 or more and less than 10 is denoted as B) | B (a compound having 3 or more and less than 10 is denoted as B) |

From patent publication US20250230193A1, “CYCLIC COMPOUND HAVING SELECTIVE KRAS INHIBITORY EFFECT ON HRAS AND NRAS” (CHUGAI SEIYAKU KABUSHIKI KAISHA, priority 2022, published 2025)
